Source: patent US8206751B2, “Class of therapeutics that enhance small molecule diffusion” (Diffusion Pharmaceuticals LLC, priority 2007, dated 2012)

Tests used:
[1] = rats breathing 100% oxygen; cited from earlier work
[2] = TSC concentrations from 1 μmole/liter to around 200 μmole/liter; cited from earlier work
[3] = Oxygen transport across the skin, transcutaneous oxygen monitor (TCOM); type: in vivo; settings: normal rat switched to 100% oxygen at time zero, intravenous injection in the femoral vein, versus saline control
Procedure: Diffusion enhancing compounds such as kosmotropes increase the oxygen transport in vivo. In the subject experiment, the oxygen diffusing through the skin of a normal, non-diseased rat was measured using a transcutaneous oxygen monitor (TCOM). In the subject study, the rats breathed air and then were switched to breathing 100% oxygen at a time equal to zero. Also at time zero, the rats were injected (intravenously in the femoral vein) with either saline (control), trehalose, glycine betaine, or TSC.

[4] = Glucose diffusion through aqueous kosmotrope solutions, microinterferometric method; type: physicochemical; settings: about 10 μM kosmotrope in water, 25° C., glucose 0.9 molar
Procedure: The diffusion of glucose through aqueous solutions of the above-mentioned kosmotropes was measured using a microinterferometric method, Secor, R. M., AIChE Journal, 11: 452-456, 1965.
In this method, a wedge is formed by two microscope slides that have a partial coating of a metal such as aluminum on the inner sides of the wedge. The wedge is placed on a microscope stage and illuminated from below using some source of monochromatic light, such as a helium-neon laser. As the light passes through the wedge, the partial coating of aluminum allows some light to be transmitted, while some is reflected. This creates constructive and destructive lines known as interference fringes. The interference fringes can then be magnified by a microscope and recorded with a camera.
Molecules of glucose will diffuse along a concentration gradient of glucose. Since the refractive index of the solution is related to the concentration of the glucose, the fringes at a given point will change with time. […]
Solutions of three kosmotropes (proline, betaine and trehalose) in water were made, so that the solutions contained about 10 μM of each of the kosmotropes. Using the trehalose solution as an example, the diffusivity of glucose through each of these solutions was then measured in the following way.
The trehalose solution was divided into two parts. […] A camera recorded the resulting fringe pattern. […]

CC(/C=C/C=C(\C)C(=O)[O-])=C\C=C\C=C(C)\C=C\C=C(/C)C(=O)[O-].[Na+].[Na+] [TSC, trans sodium crocetinate]
brain oxygen level [1]: further increased the brain oxygen level | increase in the diffusivity of glucose through water [2]: around 30% | oxygen transport across the skin (TCOM readings) [3]: increased oxygen transport across the skin

C[N+](C)(C)CC(=O)O [glycine betaine, Glycine betaine]
oxygen transport across the skin (TCOM readings) [3]: increased oxygen transport across the skin

OC[C@H]1O[C@H](O[C@H]2O[C@H](CO)[C@@H](O)[C@H](O)[C@H]2O)[C@H](O)[C@@H](O)[C@@H]1O [trehalose, Trehalose]
oxygen transport across the skin (TCOM readings) [3]: increased oxygen transport across the skin | diffusivity of glucose through the solution compared with plain water [4]: greater than the value of glucose through plain water
